Source: ChEMBL document CHEMBL3045535, “Evaluation of lufenuron as a chemosterilant against fruit flies of the genus Anastrepha (Diptera: Tephritidae)” (2010)
Active and inactive are the calls of the source. The rule behind the calls is not given here.

Tests used:
Anastrepha ludens [1] = test: Reduction of fertility in 7 days old adult of Anastrepha ludens assessed as reduction of egg hatching at 1 mg/g treated with diet measured after 11 days oviposition; type: functional; set-up: scale not given: the % may be the effect or the level left
Anastrepha striata [2] = test: Reduction of fertility in 7 days old adult of Anastrepha striata assessed as reduction of egg hatching at 0.5 mg/g treated with diet measured after 5 days oviposition; type: functional; set-up: scale not given: the % may be the effect or the level left
Anastrepha obliqua [3] = test: Reduction of fertility in 7 days old adult of Anastrepha obliqua assessed as reduction of egg hatching at 10 mg/g treated with diet measured after 3 days oviposition; type: functional; set-up: scale not given: the % may be the effect or the level left
Anastrepha serpentina [4] = test: Reduction of fertility in 7 days old adult of Anastrepha serpentina assessed as reduction of egg hatching at 0.1 mg/g treated with diet measured after 9 days oviposition; type: functional; set-up: scale not given: the % may be the effect or the level left
Anastrepha obliqua [5] = test: Reduction of fertility in 7 days old adult of Anastrepha obliqua assessed as reduction of egg hatching at 5 mg/g treated with diet measured after 5 days oviposition; type: functional; set-up: scale not given: the % may be the effect or the level left
Anastrepha striata [6] = test: Reduction of fertility in 7 days old adult of Anastrepha striata assessed as reduction of egg hatching at 0.1 mg/g treated with diet measured after 5 days oviposition; type: functional; set-up: scale not given: the % may be the effect or the level left
Anastrepha obliqua [7] = test: Reduction of fertility in 7 days old adult of Anastrepha obliqua assessed as reduction of egg hatching at 0.5 mg/g treated with diet measured after 11 days oviposition; type: functional; set-up: scale not given: the % may be the effect or the level left
Anastrepha serpentina [8] = test: Effect on fecundity in 7 days old adult of Anastrepha serpentina at 0.1 to 30 mg/g treated with diet after 24 hr; type: functional, organism-based
Anastrepha ludens [9] = test: Reduction of fertility in 7 days old adult of Anastrepha ludens assessed as reduction of egg hatching at 5 mg/g treated with diet measured after 3 days oviposition; type: functional; set-up: scale not given: the % may be the effect or the level left
Anastrepha obliqua [10] = test: Effect on fertility in 7 days old adult male of Anastrepha obliqua at 30 mg/g treated with diet after 24 hr in presence of untreated adult female of Anastrepha obliqua; type: functional, organism-based
Anastrepha serpentina [11] = test: Reduction of fertility in 7 days old adult of Anastrepha serpentina assessed as reduction of egg hatching at 5 mg/g treated with diet measured after 3 days oviposition; type: functional; set-up: scale not given: the % may be the effect or the level left
Anastrepha ludens [12] = test: Effect on fecundity in 7 days old adult male of Anastrepha ludens at 30 mg/g treated with diet after 24 hr in presence of untreated adult female of Anastrepha ludens; type: functional, organism-based
Anastrepha serpentina [13] = test: Reduction of fertility in 7 days old adult of Anastrepha serpentina assessed as reduction of egg hatching at 10 mg/g treated with diet measured after 5 days oviposition; type: functional; set-up: scale not given: the % may be the effect or the level left
Anastrepha serpentina [14] = test: Effect on fecundity in 7 days old adult female of Anastrepha serpentina at 30 mg/g treated with diet after 24 hr in presence of untreated adult male of Anastrepha serpentina; type: functional, organism-based
Anastrepha obliqua [15] = test: Reduction of fertility in 7 days old adult of Anastrepha obliqua assessed as reduction of egg hatching at 10 mg/g treated with diet measured after 7 days oviposition; type: functional; set-up: scale not given: the % may be the effect or the level left
Anastrepha striata [16] = test: Reduction of fertility in 7 days old adult of Anastrepha striata assessed as reduction of egg hatching at 0.5 mg/g treated with diet measured after 3 days oviposition; type: functional; set-up: scale not given: the % may be the effect or the level left
Anastrepha striata [17] = test: Reduction of fertility in 7 days old adult of Anastrepha striata assessed as reduction of egg hatching at 5 mg/g treated with diet measured after 9 days oviposition; type: functional; set-up: scale not given: the % may be the effect or the level left
Anastrepha serpentina [18] = test: Reduction of fertility in 7 days old adult of Anastrepha serpentina assessed as reduction of egg hatching at 30 mg/g treated with diet measured after 5 days oviposition; type: functional; set-up: scale not given: the % may be the effect or the level left
Anastrepha striata [19] = test: Effect on fertility in 7 days old adult male of Anastrepha striata at 30 mg/g treated with diet after 24 hr in presence of untreated adult female of Anastrepha striata; type: functional, organism-based
Anastrepha obliqua [20] = test: Reduction of fertility in 7 days old adult of Anastrepha obliqua assessed as reduction of egg hatching at 5 mg/g treated with diet measured after 1 day oviposition; type: functional; set-up: scale not given: the % may be the effect or the level left
Anastrepha ludens [21] = test: Effect on fertility in 7 days old adult female of Anastrepha ludens at 30 mg/g treated with diet after 24 hr in presence of untreated adult male of Anastrepha ludens; type: functional, organism-based
Anastrepha striata [22] = test: Reduction of fertility in 7 days old adult of Anastrepha striata assessed as reduction of egg hatching at 1 mg/g treated with diet measured after 11 days oviposition; type: functional; set-up: scale not given: the % may be the effect or the level left
Anastrepha striata [23] = test: Reduction of fertility in 7 days old adult of Anastrepha striata assessed as reduction of egg hatching at 1 mg/g treated with diet measured after 3 days oviposition; type: functional; set-up: scale not given: the % may be the effect or the level left
Anastrepha serpentina [24] = test: Reduction of fertility in 7 days old adult of Anastrepha serpentina assessed as reduction of egg hatching at 30 mg/g treated with diet measured after 11 days oviposition; type: functional; set-up: scale not given: the % may be the effect or the level left
Anastrepha ludens [25] = test: Reduction of fertility in 7 days old adult of Anastrepha ludens assessed as reduction of egg hatching at 0.5 mg/g treated with diet measured after 3 days oviposition; type: functional; set-up: scale not given: the % may be the effect or the level left
Anastrepha striata [26] = test: Reduction of fertility in 7 days old adult of Anastrepha striata assessed as reduction of egg hatching at 5 mg/g treated with diet measured after 3 days oviposition; type: functional; set-up: scale not given: the % may be the effect or the level left
Anastrepha obliqua [27] = test: Reduction of fertility in 7 days old adult of Anastrepha obliqua assessed as reduction of egg hatching at 1 mg/g treated with diet measured after 7 days oviposition; type: functional; set-up: scale not given: the % may be the effect or the level left
Anastrepha obliqua [28] = test: Reduction of fertility in 7 days old adult of Anastrepha obliqua assessed as reduction of egg hatching at 10 mg/g treated with diet measured after 5 days oviposition; type: functional; set-up: scale not given: the % may be the effect or the level left
Anastrepha ludens [29] = test: Reduction of fertility in 7 days old adult of Anastrepha ludens assessed as reduction of egg hatching at 10 mg/g treated with diet measured after 3 days oviposition; type: functional; set-up: scale not given: the % may be the effect or the level left
Anastrepha obliqua [30] = test: Reduction of fertility in 7 days old adult of Anastrepha obliqua assessed as reduction of egg hatching at 0.5 mg/g treated with diet measured after 5 days oviposition; type: functional; set-up: scale not given: the % may be the effect or the level left
Anastrepha striata [31] = test: Reduction of fertility in 7 days old adult of Anastrepha striata assessed as reduction of egg hatching at 0.1 mg/g treated with diet measured after 9 days oviposition; type: functional; set-up: scale not given: the % may be the effect or the level left
Anastrepha serpentina [32] = test: Reduction of fertility in 7 days old adult of Anastrepha serpentina assessed as reduction of egg hatching at 30 mg/g treated with diet measured after 3 days oviposition; type: functional; set-up: scale not given: the % may be the effect or the level left
Anastrepha obliqua [33] = test: Reduction of fertility in 7 days old adult of Anastrepha obliqua assessed as reduction of egg hatching at 0.5 mg/g treated with diet measured after 1 day oviposition; type: functional; set-up: scale not given: the % may be the effect or the level left
Anastrepha ludens [34] = test: Reduction of fertility in 7 days old adult of Anastrepha ludens assessed as reduction of egg hatching at 0.5 mg/g treated with diet measured after 9 days oviposition; type: functional; set-up: scale not given: the % may be the effect or the level left
Anastrepha serpentina [35] = test: Reduction of fertility in 7 days old adult of Anastrepha serpentina assessed as reduction of egg hatching at 0.1 mg/g treated with diet measured after 3 days oviposition; type: functional; set-up: scale not given: the % may be the effect or the level left
Anastrepha striata [36] = test: Reduction of fertility in 7 days old adult of Anastrepha striata assessed as reduction of egg hatching at 30 mg/g treated with diet measured after 1 day oviposition; type: functional; set-up: scale not given: the % may be the effect or the level left
Anastrepha serpentina [37] = test: Reduction of fertility in 7 days old adult of Anastrepha serpentina assessed as reduction of egg hatching at 5 mg/g treated with diet measured after 5 days oviposition; type: functional; set-up: scale not given: the % may be the effect or the level left
Anastrepha serpentina [38] = test: Reduction of fertility in 7 days old adult of Anastrepha serpentina assessed as reduction of egg hatching at 1 mg/g treated with diet measured after 9 days oviposition; type: functional; set-up: scale not given: the % may be the effect or the level left
Anastrepha striata [39] = test: Reduction of fertility in 7 days old adult of Anastrepha striata assessed as reduction of egg hatching at 30 mg/g treated with diet measured after 11 days oviposition; type: functional; set-up: scale not given: the % may be the effect or the level left
Anastrepha obliqua [40] = test: Effect on fecundity in 7 days old adult of Anastrepha obliqua at 0.1 to 30 mg/g treated with diet after 24 hr; type: functional, organism-based
Anastrepha obliqua [41] = test: Effect on fertility in 7 days old adult female of Anastrepha obliqua at 30 mg/g treated with diet after 24 hr in presence of untreated adult male of Anastrepha obliqua; type: functional, organism-based

For `O=C(NC(=O)c1c(F)cccc1F)Nc1cc(Cl)c(OC(F)(F)C(F)C(F)(F)F)cc1Cl` (racemic) [LUFENURON], the Activity (Anastrepha ludens [1]) was 40%, the Activity (Anastrepha striata [2]) was 14% and the Activity (Anastrepha obliqua [3]) was 1.3%. For the same compound, the Activity (Anastrepha serpentina [4]) was 81.7%, the Activity (Anastrepha obliqua [5]) was 0% and the Activity (Anastrepha striata [6]) was 60.7%. For the same compound, the Activity (Anastrepha obliqua [7]) was 4%, the Activity (Anastrepha serpentina [8]) was “Active” and the Activity (Anastrepha ludens [9]) was 16%. For the same compound, the Activity (Anastrepha obliqua [10]) was “inactive”, the Activity (Anastrepha serpentina [11]) was 58.9% and the Activity (Anastrepha ludens [12]) was “inactive”. The Activity (Anastrepha serpentina [13]) was 54.7%, the Activity (Anastrepha serpentina [14]) was “inactive” and the Activity (Anastrepha obliqua [15]) was 1.3%. The Activity (Anastrepha striata [16]) was 22.7%, the Activity (Anastrepha striata [17]) was 8.7% and the Activity (Anastrepha serpentina [18]) was 78.4%. For the same compound, the Activity (Anastrepha striata [19]) was “inactive”, the Activity (Anastrepha obliqua [20]) was 1.3% and the Activity (Anastrepha ludens [21]) was “inactive”. For the same compound, the Activity (Anastrepha striata [22]) was 8.7%, the Activity (Anastrepha striata [23]) was 8% and the Activity (Anastrepha serpentina [24]) was 78%. The Activity (Anastrepha ludens [25]) was 12%, the Activity (Anastrepha striata [26]) was 4.7% and the Activity (Anastrepha obliqua [27]) was 0.7%. It also gave an Activity (Anastrepha obliqua [28]) of 0%, an Activity (Anastrepha ludens [29]) of 4.7% and an Activity (Anastrepha obliqua [30]) of 0%. The Activity (Anastrepha striata [31]) was 70.7%, the Activity (Anastrepha serpentina [32]) was 72.3% and the Activity (Anastrepha obliqua [33]) was 8.7%. For the same compound, the Activity (Anastrepha ludens [34]) was 16%, the Activity (Anastrepha serpentina [35]) was 95% and the Activity (Anastrepha striata [36]) was 8.7%. It also gave an Activity (Anastrepha serpentina [37]) of 83.1%, an Activity (Anastrepha serpentina [38]) of 95.6% and an Activity (Anastrepha striata [39]) of 8%. For the same compound, the Activity (Anastrepha obliqua [40]) was “inactive” and the Activity (Anastrepha obliqua [41]) was “inactive”.
